Assay results reported in PMC9705902, “Enzymatic Characterization and Comparison of Two Steroid Hydroxylases CYP154C3-1 and CYP154C3-2 from Streptomyces Species” (Journal of Microbiology and Biotechnology, 2021).

Columns and labels:
[1] = biological target: T1, CYP154C3-1 (Streptomyces sp., UniProt A0A2H4WK73); test: type I spectral shift titration (A390-A420), tight-binding quadratic fit; design: species or system Streptomyces sp. W2061
T1 construct: full-length CDS 1,239 bp (412 residues), N-terminal Trx-His-S-enterokinase fusion from pET32a(+) kept, E. coli C41(DE3), ~65 kDa on SDS-PAGE (~45 kDa theoretical without fusion), heme protein
From the text: type I spectral shift titration (A390-A420), tight-binding quadratic fit on CYP154C3-1

[2] = biological target: T2, CYP154C3-2 (Streptomyces sp., UniProt A0A7S9IUH5); test: as above
T2 construct: full-length CDS 1,254 bp (417 residues), N-terminal Trx-His-S-enterokinase fusion from pET32a(+) kept, E. coli C41(DE3), ~65 kDa on SDS-PAGE (~45 kDa theoretical without fusion), heme protein
T2 sequence (A0A7S9IUH5 1-417): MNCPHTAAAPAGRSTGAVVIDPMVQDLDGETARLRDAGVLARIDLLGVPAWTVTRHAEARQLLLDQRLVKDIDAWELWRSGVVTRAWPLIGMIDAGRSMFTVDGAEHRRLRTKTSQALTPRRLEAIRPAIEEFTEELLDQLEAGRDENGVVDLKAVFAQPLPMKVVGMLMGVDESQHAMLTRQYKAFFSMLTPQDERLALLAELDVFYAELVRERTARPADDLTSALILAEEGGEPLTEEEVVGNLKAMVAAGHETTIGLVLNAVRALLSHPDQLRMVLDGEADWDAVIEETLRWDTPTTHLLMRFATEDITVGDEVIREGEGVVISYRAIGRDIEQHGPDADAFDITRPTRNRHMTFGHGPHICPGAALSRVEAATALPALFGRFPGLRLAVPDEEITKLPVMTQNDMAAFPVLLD
From the text: type I spectral shift titration (A390-A420), tight-binding quadratic fit on CYP154C3-2

T1 sequence (A0A2H4WK73 1-414): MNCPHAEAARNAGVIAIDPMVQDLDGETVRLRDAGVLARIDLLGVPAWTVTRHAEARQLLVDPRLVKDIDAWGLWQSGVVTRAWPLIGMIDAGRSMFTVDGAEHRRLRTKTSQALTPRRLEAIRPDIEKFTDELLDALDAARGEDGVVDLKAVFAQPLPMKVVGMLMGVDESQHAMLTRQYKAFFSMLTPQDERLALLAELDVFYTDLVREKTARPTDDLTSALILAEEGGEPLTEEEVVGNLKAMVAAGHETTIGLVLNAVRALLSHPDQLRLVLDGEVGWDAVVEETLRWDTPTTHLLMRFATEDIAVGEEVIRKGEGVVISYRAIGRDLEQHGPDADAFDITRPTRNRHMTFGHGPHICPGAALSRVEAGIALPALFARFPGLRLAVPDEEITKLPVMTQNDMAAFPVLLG

Row | Structure (SMILES) | Kd [1] [µM] | Kd [2] [µM]
1 | C[C@]12CCC(=O)C=C1CC[C@@H]1[C@@H]2C(=O)C[C@]2(C)C(=O)CC[C@@H]12 [compound 1, Adrenosterone] | 0.318 ± 0.026 | 0.443 ± 0.035
2 | C[C@]12CCC(=O)C=C1CC[C@@H]1[C@@H]2CC[C@]2(C)C(=O)CC[C@@H]12 [compound 2, Androstenedione] | 0.351 ± 0.033 | 0.475 ± 0.054
3 | C[C@]12C[C@H](O)[C@H]3[C@@H](CCC4=CC(=O)CC[C@@]43C)[C@@H]1CC[C@@H]2C(=O)CO [compound 3, Corticosterone] | 14.1 ± 2.57 | 44.5 ± 3.97
4 | C[C@]12CC[C@H]3[C@@H](CCC4=CC(=O)CC[C@@H]43)[C@@H]1CC[C@@H]2O [compound 6, Nandrolone] | 13.5 ± 2.62 | 6.58 ± 0.84
5 | CC(=O)[C@H]1CC[C@H]2[C@@H]3CCC4=CC(=O)CC[C@]4(C)[C@H]3CC[C@]12C [compound 9, Progesterone] | – | 0.409 ± 0.037
